Measured values taken from patent US7618983B2, “Bicyclic triazole α4 integrin inhibitors” (Janssen Pharmaceutica, N.V., priority 2004, dated 2009).
Where two headings read alike, the source gives them in different places.

What was measured:
α4β1 = α4β1 (Homo sapiens, UniProt P05556+P13612); assay: Ramos Cell Adhesion Assay (α4β1 Mediated Adhesion/VCAM-1); assay type: cell-based; parameters: Ramos Cell Adhesion Assay (α4β1 Mediated Adhesion/VCAM-1); endogenous in cells; host or cells: Ramos cells
Description: Ramos Cell Adhesion Assay (α4β1 Mediated Adhesion/VCAM-1)
Immulon 96 well plates (Dynex) were coated with 100 μL recombinant hVCAM-1 at 4.0 μg/mL in 0.05 M NaCO3 buffer pH 9.0 overnight at 4° C. (R&D Systems). Plates were washed 3 times in PBS with 1% BSA and blocked for 1 h @ room temperature in this buffer. PBS was removed and compounds to be tested (50 μL) were added at 2× concentration. Ramos cells, (50 μL at 2×10^6/mL) labeled with 5 μM Calcein AM (Molecular Probes) for 1 h at 37° C., were added to each well and allowed to adhere for 1 h at room temperature. Plates were washed 3× in PBS+1% BSA and cells were lysed for 15 minutes in 100 μL of 1 M Tris pH 8.0 with 1% SDS. The plate was read at 485 nm excitation and 530 nm emission.

human α4β7 integrin = target: T1, human α4β7 integrin (Homo sapiens, UniProt P13612+P26010); assay: α4β7-K562 Cell Adhesion Assay (α4β7 Mediated Adhesion/MAdCAM-1); assay type: cell-based
T1 construct: expressed in transfected cells; host or cells: K562 cells, stably transfected
T1 sequence (P13612 34-1032): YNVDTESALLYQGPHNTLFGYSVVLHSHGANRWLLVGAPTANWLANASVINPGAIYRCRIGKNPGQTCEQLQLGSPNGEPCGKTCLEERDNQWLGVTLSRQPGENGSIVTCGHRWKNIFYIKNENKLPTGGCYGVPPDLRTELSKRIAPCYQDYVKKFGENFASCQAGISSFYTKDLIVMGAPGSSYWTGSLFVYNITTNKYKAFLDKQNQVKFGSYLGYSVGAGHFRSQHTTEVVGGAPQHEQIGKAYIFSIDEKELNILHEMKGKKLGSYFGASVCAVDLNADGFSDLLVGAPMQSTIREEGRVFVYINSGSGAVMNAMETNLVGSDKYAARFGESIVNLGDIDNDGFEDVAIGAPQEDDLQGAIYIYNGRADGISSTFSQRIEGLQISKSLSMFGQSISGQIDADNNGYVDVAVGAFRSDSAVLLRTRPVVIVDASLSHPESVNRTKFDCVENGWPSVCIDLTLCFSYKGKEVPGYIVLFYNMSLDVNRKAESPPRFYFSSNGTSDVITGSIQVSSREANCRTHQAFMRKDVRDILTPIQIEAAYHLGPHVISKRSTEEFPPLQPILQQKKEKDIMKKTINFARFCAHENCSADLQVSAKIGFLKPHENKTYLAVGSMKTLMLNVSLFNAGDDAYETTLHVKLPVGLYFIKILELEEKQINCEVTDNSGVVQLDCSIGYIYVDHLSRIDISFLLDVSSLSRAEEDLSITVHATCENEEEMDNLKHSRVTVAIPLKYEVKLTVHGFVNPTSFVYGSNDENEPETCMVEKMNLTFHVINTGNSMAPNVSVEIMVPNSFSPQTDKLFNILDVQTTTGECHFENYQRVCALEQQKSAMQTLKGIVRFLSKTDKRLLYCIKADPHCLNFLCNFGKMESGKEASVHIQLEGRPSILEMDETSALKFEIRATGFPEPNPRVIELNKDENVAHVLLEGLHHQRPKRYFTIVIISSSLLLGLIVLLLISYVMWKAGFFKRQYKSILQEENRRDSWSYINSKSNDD
T1 sequence (P26010 20-798): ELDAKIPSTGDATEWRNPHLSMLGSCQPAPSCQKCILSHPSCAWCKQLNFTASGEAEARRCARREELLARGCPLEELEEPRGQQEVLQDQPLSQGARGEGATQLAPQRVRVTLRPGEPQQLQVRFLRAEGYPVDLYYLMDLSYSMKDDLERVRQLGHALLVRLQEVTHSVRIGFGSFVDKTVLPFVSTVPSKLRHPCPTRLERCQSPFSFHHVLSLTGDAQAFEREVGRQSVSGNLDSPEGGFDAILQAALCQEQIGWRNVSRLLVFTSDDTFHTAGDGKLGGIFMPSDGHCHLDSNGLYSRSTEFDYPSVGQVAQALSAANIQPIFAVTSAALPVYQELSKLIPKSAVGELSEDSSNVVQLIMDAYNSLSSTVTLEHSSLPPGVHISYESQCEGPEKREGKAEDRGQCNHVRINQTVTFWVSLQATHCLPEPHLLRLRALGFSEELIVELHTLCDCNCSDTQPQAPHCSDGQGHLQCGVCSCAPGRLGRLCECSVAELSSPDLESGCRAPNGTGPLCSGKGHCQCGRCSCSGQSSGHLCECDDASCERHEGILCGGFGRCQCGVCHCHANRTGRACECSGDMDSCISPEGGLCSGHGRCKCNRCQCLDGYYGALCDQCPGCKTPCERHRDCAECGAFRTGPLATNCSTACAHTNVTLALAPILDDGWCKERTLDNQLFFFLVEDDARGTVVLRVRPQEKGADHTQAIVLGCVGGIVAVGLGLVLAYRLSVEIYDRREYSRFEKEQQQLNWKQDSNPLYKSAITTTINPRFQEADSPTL
Description: α4β7-K562 Cell Adhesion Assay (α4β7 Mediated Adhesion/MAdCAM-1)
M2 anti-FLAG antibody coated 96-well plates (Sigma) were coated for 1 hour at 4° C. with 2-8 μl/well recombinant FLAG-hMAdCAM-1 contained in 100 μL of Dulbecco's PBS, pH 7.4, with 1% BSA and 1 mM Mn^2+ (PBS-BSA-Mn). Plates were washed once with PBS-BSA-Mn. Buffer was removed and compounds to be tested (50 μL) were added at 2 times concentration. Stably transfected K562 cells expressing human α4β7 integrin, (50 μL at 2×10^6/mL) that had been labeled with 100 μg/mL carboxymethyl fluorescein diacetate succinimidyl ester (CFDA-SE; Molecular Probes) for 15 min at 37° C. were added to each well and allowed to adhere for 1 h at room temperature. Plates were washed 4 times in PBS-BSA-Mn and then cells were lysed for 2 minutes by addition of 100 μL of PBS without Ca, Mg supplemented with 0.1 M NaOH. The plate was read on a 96-well fluorescent plate reader at 485 nm excitation and 530 nm emission.

[1] = Ramos cells adhering to recombinant hVCAM-1, read-out: α4β1 IC50
[2] = K562 cells expressing human α4β7 adhering to FLAG-hMAdCAM-1, 1 mM Mn2+, read-out: α4β7, Madcam IC50

Sequence of α4β1 (P05556 21-798, one chain of several): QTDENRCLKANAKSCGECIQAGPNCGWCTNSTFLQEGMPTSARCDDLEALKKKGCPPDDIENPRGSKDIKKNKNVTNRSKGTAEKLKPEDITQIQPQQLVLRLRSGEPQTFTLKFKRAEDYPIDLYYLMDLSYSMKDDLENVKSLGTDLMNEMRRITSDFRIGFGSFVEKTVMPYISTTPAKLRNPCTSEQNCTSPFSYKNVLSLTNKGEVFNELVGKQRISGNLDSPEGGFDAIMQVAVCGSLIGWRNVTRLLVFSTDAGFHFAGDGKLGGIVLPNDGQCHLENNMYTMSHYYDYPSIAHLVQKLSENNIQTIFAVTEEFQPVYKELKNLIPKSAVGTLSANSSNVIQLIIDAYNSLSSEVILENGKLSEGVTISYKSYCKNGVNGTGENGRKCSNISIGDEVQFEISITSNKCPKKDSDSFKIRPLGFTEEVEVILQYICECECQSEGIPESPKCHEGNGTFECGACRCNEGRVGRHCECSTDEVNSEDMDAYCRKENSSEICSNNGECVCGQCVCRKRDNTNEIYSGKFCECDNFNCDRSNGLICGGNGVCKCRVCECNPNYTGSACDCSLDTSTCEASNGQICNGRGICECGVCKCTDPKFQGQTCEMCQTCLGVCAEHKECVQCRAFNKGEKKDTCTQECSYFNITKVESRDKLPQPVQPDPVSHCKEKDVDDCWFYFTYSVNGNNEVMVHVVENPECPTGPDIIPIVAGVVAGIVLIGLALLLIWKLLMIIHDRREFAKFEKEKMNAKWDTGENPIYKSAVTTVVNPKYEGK

| Structure (SMILES) | IC50 (α4β1) [nM] | IC50 (human α4β7 integrin) [nM] | IC50 (α4β1; [1]) [nM] | IC50 (human α4β7 integrin; [2]) [nM] |
| --- | --- | --- | --- | --- |
| CN(C)C(=O)Oc1ccc(C[C@H](NC(=O)C2CCCc3nnc(-c4ccccc4)n32)C(=O)O)cc1 (stereo partly drawn) [Cpd 1, 3-(4-Dimethylcarbamoyloxy-phenyl)-2-(S)-[(3-phenyl-5,6,7,8-tetrahydro-[1,2,4]triazolo[4,3-a]pyridine-5-carbonyl)-amino]-propionic acid] | 3300 | 1220 | – | – |
| CN(C)C(=O)Oc1ccc(C[C@H](NC(=O)C2CCCc3nnc(Cc4ccccc4)n32)C(=O)O)cc1 (stereo partly drawn) [Cpd 2, 2-(S)-[(3-Benzyl-5,6,7,8-tetrahydro-[1,2,4]triazolo[4,3-a]pyridine-5-carbonyl)-amino]-3-(4-dimethylcarbamoyloxy-phenyl)-propionic acid] | 5090 | 1660 | – | – |
| CN(C)C(=O)Oc1ccc(C[C@H](NC(=O)[C@@H]2CCc3nnc(Cc4ccccc4)n32)C(=O)O)cc1 [Cpd 3, 2-(S)-[(3-Benzyl-6,7-dihydro-5H -pyrrolo[2,1-c][1,2,4]triazole-5-(S)-carbonyl)-amino]-3-(4-dimethylcarbamoyloxy-phenyl)-propionic acid] | 4150 | > 5000 | – | – |
| O=C(Nc1ccc(C[C@H](NC(=O)[C@@H]2CCc3nnc(Cc4ccccc4)n32)C(=O)O)cc1)c1c(Cl)cccc1Cl [Cpd 4, 2-(S)-[(3-Benzyl-6,7-dihydro-5H-pyrrolo[2,1-c][1,2,4]triazole-5-(S)-carbonyl)-amino]-3-[4-(2,6-dichloro-benzoylamino)-phenyl]-propionic acid] | – | – | 620 | 290 |
| O=C(Nc1ccc(C[C@H](NC(=O)[C@@H]2CCc3nnc(Cc4ccccc4)n32)C(=O)O)cc1)c1cccc2ccccc12 [Cpd 5, 2-(S)-[(3-Benzyl-6,7-dihydro-5H-pyrrolo[2,1-c][1,2,4]triazole-5-(S)-carbonyl)-amino]-3-{4-[(naphthalene-1-carbonyl)-amino]-phenyl}-propionic acid] | – | – | > 5000 | > 5000 |
| O=C(Nc1ccc(C[C@H](NC(=O)[C@@H]2CCc3nnc(Cc4ccccc4)n32)C(=O)O)cc1)c1ccc2ccccc2c1 [Cpd 6, 2-(S)-[(3-Benzyl-6,7-dihydro-5H-pyrrolo[2,1-c][1,2,4]triazole-5-(S)-carbonyl)-amino]-3-{4-[(naphthalene-2-carbonyl)-amino]-phenyl}-propionic acid] | – | – | > 5000 | > 5000 |
| CCOc1ccc2ccccc2c1C(=O)Nc1ccc(C[C@H](NC(=O)[C@@H]2CCc3nnc(Cc4ccccc4)n32)C(=O)O)cc1 [Cpd 7, 2-(S)-[(3-Benzyl-6,7-dihydro-5H-pyrrolo[2,1-c][1,2,4]triazole-5-(S)-carbonyl)-amino]-3-{4-[(2-ethoxy-naphthalene-1-carbonyl)-amino]-phenyl}-propionic acid] | – | – | > 5000 | > 5000 |
| O=C(Nc1ccc(C[C@H](NC(=O)[C@@H]2CCc3nnc(Cc4ccccc4)n32)C(=O)O)cc1)c1cccc2c1-c1ccccc1C2=O [Cpd 8, 2-(S)-[(3-Benzyl-6,7-dihydro-5H-pyrrolo[2,1-c][1,2,4]triazole-5-(S)-carbonyl)-amino]-3-{4-[(9-oxo-9H-fluorene-4-carbonyl)-amino]-phenyl}-propionic acid] | – | – | 1560 | 350 |
| O=C(Nc1ccc(C[C@H](NC(=O)[C@@H]2CCc3nnc(Cc4ccccc4)n32)C(=O)O)cc1)c1c(Cl)cncc1Cl [Cpd 9, 2-(S)-[(3-Benzyl-6,7-dihydro-5H-pyrrolo[2,1-c][1,2,4]triazole-5-(S)-carbonyl)-amino]-3-{4-[(3,5-dichloro-pyridine-4-carbonyl)-amino]-phenyl}-propionic acid] | – | – | 80 | 20 |
| CCCc1nnc2n1[C@H](C(=O)N[C@@H](Cc1ccc(NC(=O)c3c(Cl)cccc3Cl)cc1)C(=O)O)CC2 [Cpd 10, 3-[4-(2,6-Dichloro-benzoylamino)-phenyl]-2-(S)-[(3-propyl-6,7-dihydro-5H-pyrrolo[2,1-c][1,2,4]triazole-5-(S)-carbonyl)-amino]-propionic acid] | – | – | 1040 | 80 |
| O=C(NCc1nnc2n1[C@H](C(=O)N[C@@H](Cc1ccc(NC(=O)c3c(Cl)cccc3Cl)cc1)C(=O)O)CC2)OCc1ccccc1 [Cpd 11, 2-(S)-{[3-(Benzyloxycarbonylamino-methyl)-6,7-dihydro-5H-pyrrolo[2,1-c][1,2,4]triazole-5-(S)-carbonyl]-amino}-3-[4-(2,6-dichloro-benzoylamino)-phenyl]-propionic acid] | – | – | > 5000 | 550 |
| O=C(Nc1ccc(C[C@H](NC(=O)[C@@H]2CCc3nnc(Cc4ccsc4)n32)C(=O)O)cc1)c1c(Cl)cccc1Cl [Cpd 12, 3-[4-(2,6-Dichloro-benzoylamino)-phenyl]-2-(S)-[(3-thiophen-3-ylmethyl-6,7-dihydro-5H-pyrrolo[2,1-c][1,2,4]triazole-5-(S)-carbonyl)-amino]-propionic acid] | – | – | 380 | 120 |
| COc1cccc(OC)c1-c1ccc(C[C@H](NC(=O)[C@@H]2CCc3nnc(Cc4ccccc4)n32)C(=O)O)cc1 [Cpd 13, 2-(S)-[(3-Benzyl-6,7-dihydro-5H-pyrrolo[2,1-c][1,2,4]triazole-5-(S)-carbonyl)-amino]-3-(2′,6′-dimethoxy-biphenyl-4-yl)-propionic acid] | – | – | 1190 | 320 |
| NCc1nnc2n1[C@H](C(=O)N[C@@H](Cc1ccc(NC(=O)c3c(Cl)cccc3Cl)cc1)C(=O)O)CC2 [Cpd 14, 2-(S)-[(3-Aminomethyl-6,7-dihydro-5H-pyrrolo[2,1-c][1,2,4]triazole-5-(S)-carbonyl)-amino]-3-[4-(2,6-dichloro-benzoylamino)-phenyl]-propionic acid] | – | – | > 5000 | – |
